Assay results reported in article PMC6325200, “Effects of Microplate Type and Broth Additives on Microdilution MIC Susceptibility Assays” (Antimicrobial Agents and Chemotherapy, 2018).
Values after ≈ are worked out from the molar mass of the structure shown. Where two headings read alike, the source gives them in different places.

Experiments:
[1] = literature values, reference given; cited from earlier work
Text: Other assay additives can affect MIC values. […] Plasma protein binding has been implicated as a major factor limiting the active free concentration of many clinically important antibiotics ([37][–][42]).

[2] = test system: MRSA ATCC 43300
Procedure: (§1) A positive control of a row of just the bacteria and a negative control of only the medium were included for every plate tested.
(§2) The compounds along with standard antibiotics were serially diluted 2-fold across the 96-well plates. […] A sample of each culture was then diluted 40-fold in fresh MH broth (in presence and absence of Tween) and incubated at 37°C for 2 to 3 h.
For experiments in the presence of surfactant, 2% beractant (25 mg/ml) was added to the mid-log-phase cultures and mixed gently and added to all the 96-well plates. For experiments in the presence of serum, a mixture of 50% of human serum along with 50% MHB was prepared and used throughout the experiment.

[3] = test system: E. faecalis ATCC 29212; assay: microbe, parasite or virus in culture; conditions: n = 2
Procedure: as §1, §2

[4] = test system: MSSA S. aureus ATCC 25923; assay: microbe, parasite or virus in culture; conditions: n = 2
Procedure: as §1, §2

[5] = test system: S. aureus GISA NRS 2; ATCC 700698; assay: microbe, parasite or virus in culture; conditions: n = 2
Procedure: as §1, §2

[6] = test system: S. pneumoniae ATCC 33440; assay: microbe, parasite or virus in culture; conditions: n = 2
Procedure: as §1, §2

[7] = test system: S. pneumoniae ATCC 700677 (MDR); assay: microbe, parasite or virus in culture; conditions: n = 2
Procedure: as §1, §2

[8] = test system: S. pyogenes ATCC 12344; conditions: n = 2
Procedure: as §1, §2

[9] = test system: MRSA; conditions: literature value; cited from earlier work
Text: TABLE 1 Literature MIC values for tested antibiotics | column: MIC (µg/ml) (reference[s]) / MRSA

[10] = Corning flat NBS plate, MHB +0.002% T80, no further additive, n = 2
[11] = Corning flat PS plate, MHB −T80, no additive, n = 2

In the case of C[C@@H](O)[C@H]1C(=O)N2C(C(=O)O)=C(S[C@@H]3CN[C@H](C(=O)N(C)C)C3)[C@H](C)[C@H]12 [meropenem], the protein binding [1] is listed as 2%.
For CC(=O)NC[C@H]1CN(c2ccc(N3CCOCC3)c(F)c2)C(=O)O1 [linezolid], the protein binding [1] is listed as 31%.
CNC(=O)[C@H](CCCCNC(=O)[C@H]1NC(=O)[C@H]2NC(=O)[C@H](NC(=O)[C@@H]3NC(=O)[C@H](CC(N)=O)NC(=O)[C@H](NC(=O)[C@@H](CC(C)C)NC)[C@H](O)c4ccc(c(Cl)c4)Oc4cc3cc(c4O[C@@H]3O[C@H](CO)[C@@H](O)[C@H](O)[C@H]3O[C@H]3C[C@](C)(N)[C@H](O)[C@H](C)O3)Oc3ccc(cc3Cl)[C@H]2O)c2ccc(O)c(c2)-c2c(O)cc(O)cc21)NC(=O)[C@H](CCCCN)NC(=O)[C@H](CCCCN)NC(=O)[C@H](CCCCNC(=O)c1ccc(Oc2ccccc2)cc1)NC(=O)c1ccc(Oc2ccccc2)cc1 [MCC310] showed an MIC [2, 10] of 0.007 µg/mL (≈ 0.00296 µM) and an MIC [2, 11] of 4 µg/mL (≈ 1.69 µM).
Work on CN[C@H](CC(C)C)C(=O)N[C@H]1C(=O)N[C@@H](CC(N)=O)C(=O)N[C@H]2C(=O)N[C@H]3C(=O)N[C@H](C(=O)N[C@H](C(=O)O)c4cc(O)cc(O)c4-c4cc3ccc4O)[C@H](O)c3ccc(c(Cl)c3)Oc3cc2cc(c3O[C@@H]2O[C@H](CO)[C@@H](O)[C@H](O)[C@H]2O[C@H]2C[C@](C)(N)[C@H](O)[C@H](C)O2)Oc2ccc(cc2Cl)[C@H]1O [Vancomycin, vancomycin] yielded an MIC ([2]; Corning NBS, MH + 2% LHB, 2% LS, n = 2) of 0.5 to 1 µg/mL, an MIC ([2]; Corning NBS, MH + 2% LHB, 50% HS, n = 2) of 0.5 to 1 µg/mL and an MIC ([2]; Corning NBS, MH + 2% LHB, no additive, n = 2) of 1 µg/mL. The MIC ([2]; Corning NBS, MH + T80, 2% LS, n = 2) was 0.25 to 0.5 µg/mL, the MIC ([2]; Corning NBS, MH + T80, 50% HS, n = 2) was 1 µg/mL and the MIC ([2]; Corning NBS, MH, 2% LS, n = 2) was 0.5 µg/mL (≈ 0.345 µM). For the same molecule, the MIC ([2]; Corning NBS, MH, 50% HS, n = 2) was 0.25 to 0.5 µg/mL, the MIC ([2]; Corning PS, MH + 2% LHB, 2% LS, n = 2) was 0.5 to 1 µg/mL and the MIC ([2]; Corning PS, MH + 2% LHB, 50% HS, n = 2) was 0.5 to 1 µg/mL. The MIC ([2]; Corning PS, MH + 2% LHB, no additive, n = 2) was 1 µg/mL, the MIC ([2]; Corning PS, MH + T80, 2% LS, n = 2) was 0.5 to 2 µg/mL and the MIC ([2]; Corning PS, MH + T80, 50% HS, n = 2) was 0.5 µg/mL. It also gave an MIC ([2]; Corning PS, MH, 2% LS, n = 2) of 0.5 to 1 µg/mL, an MIC ([2]; Corning PS, MH, 50% HS, n = 2) of 0.25 to 0.5 µg/mL and an MIC ([2]; Corning TC, MH + 2% LHB, 2% LS, n = 2) of 0.5 to 1 µg/mL. The MIC ([2]; Corning TC, MH + 2% LHB, 50% HS, n = 2) was 0.5 µg/mL, the MIC ([2]; Corning TC, MH + 2% LHB, no additive, n = 2) was 0.5 µg/mL and the MIC ([2]; Corning TC, MH + T80, 2% LS, n = 2) was 0.5 µg/mL. For the same molecule, the MIC ([2]; Corning TC, MH + T80, 50% HS, n = 2) was 0.5 to 1 µg/mL, the MIC ([2]; Corning TC, MH, 2% LS, n = 2) was 0.25 to 1 µg/mL and the MIC ([2]; Corning TC, MH, 50% HS, n = 2) was 0.25 to 0.5 µg/mL. The MIC [2, 10] was 1 µg/mL (≈ 0.69 µM), the MIC ([2]; Corning flat NBS plate, MHB −T80, no additive, n = 2) was 0.5 µg/mL (≈ 0.345 µM) and the MIC ([2]; Corning flat PS plate, MHB +0.002% T80, no further additive, n = 2) was 1 to 2 µg/mL. For the same molecule, the MIC [2, 11] was 0.5 µg/mL (≈ 0.345 µM), the MIC ([2]; Corning flat TC plate, MHB +0.002% T80, no further additive, n = 2) was 1 µg/mL (≈ 0.69 µM) and the MIC ([2]; Corning flat TC plate, MHB −T80, no additive, n = 2) was 0.5 µg/mL (≈ 0.345 µM). It also gave an MIC ([2]; Nunc U TC plate, MHB +0.002% T80, n = 2) of 1 µg/mL (≈ 0.69 µM), an MIC ([2]; Nunc U TC plate, MHB −T80, n = 2) of 0.5 µg/mL (≈ 0.345 µM) and an MIC ([2]; Nunc flat PS plate, MHB +0.002% T80, n = 2) of 1 µg/mL (≈ 0.69 µM). It also gave an MIC ([2]; Nunc flat PS plate, MHB −T80, n = 2) of 1 µg/mL (≈ 0.69 µM), an MIC ([2]; Nunc flat TC plate, MHB +0.002% T80, n = 2) of 1 µg/mL (≈ 0.69 µM) and an MIC ([2]; Nunc flat TC plate, MHB −T80, n = 2) of 1 to 2 µg/mL. The MIC ([2]; Trek PS, MH + 2% LHB, 2% LS, n = 2) was 0.25 to 0.5 µg/mL, the MIC ([2]; Trek PS, MH + 2% LHB, 50% HS, n = 2) was 0.5 µg/mL and the MIC ([2]; Trek PS, MH + 2% LHB, no additive, n = 2) was 0.25 µg/mL. For the same molecule, the MIC ([2]; Trek PS, MH + T80, 2% LS, n = 2) was 0.06 to 1 µg/mL, the MIC ([2]; Trek PS, MH + T80, 50% HS, n = 2) was 0.25 to 0.5 µg/mL and the MIC ([2]; Trek PS, MH, 2% LS, n = 2) was 0.03 µg/mL (≈ 0.0207 µM). For the same molecule, the MIC ([2]; Trek PS, MH, 50% HS, n = 2) was 0.25 µg/mL (≈ 0.173 µM), the MIC ([2]; Trek flat PS plate, MHB +0.002% T80, no further additive, n = 2) was 1 µg/mL (≈ 0.69 µM) and the MIC ([2]; Trek flat PS plate, MHB −T80, no additive, n = 2) was 0.5 to 1 µg/mL. The “MIC” value ([2]; regardless of plate type or addition of T80) was “around 1 µg/ml”, the MIC ([3]; Corning NBS, MHB +T80) was 1 µg/mL (≈ 0.69 µM) and the MIC ([3]; Corning NBS, MHB -T80) was 1 to 2 µg/mL. For the same molecule, the MIC ([3]; Corning PS, MHB +T80) was 1 µg/mL (≈ 0.69 µM), the MIC ([3]; Corning PS, MHB -T80) was 1 µg/mL (≈ 0.69 µM) and the MIC ([3]; Corning TC, MHB +T80) was 1 µg/mL (≈ 0.69 µM). The MIC ([3]; Corning TC, MHB -T80) was 1 to 2 µg/mL, the MIC ([4]; Corning NBS, MHB +T80) was 1 to 2 µg/mL and the MIC ([4]; Corning NBS, MHB -T80) was 0.5 to 1 µg/mL. The MIC ([4]; Corning PS, MHB +T80) was 1 to 2 µg/mL, the MIC ([4]; Corning PS, MHB -T80) was 0.5 to 1 µg/mL and the MIC ([4]; Corning TC, MHB +T80) was 1 µg/mL (≈ 0.69 µM). It also gave an MIC ([4]; Corning TC, MHB -T80) of 0.5 to 1 µg/mL, an MIC ([5]; Corning NBS, MHB +T80) of 0.5 to 1 µg/mL and an MIC ([5]; Corning NBS, MHB -T80) of 0.5 µg/mL (≈ 0.345 µM). The MIC ([5]; Corning PS, MHB +T80) was 0.5 to 1 µg/mL, the MIC ([5]; Corning PS, MHB -T80) was 0.5 to 1 µg/mL and the MIC ([5]; Corning TC, MHB +T80) was 0.5 µg/mL (≈ 0.345 µM). It also gave an MIC ([5]; Corning TC, MHB -T80) of 0.5 to 1 µg/mL, an MIC ([6]; Corning NBS, MHB +T80) of 0.5 to 1 µg/mL and an MIC ([6]; Corning NBS, MHB -T80) of 0.5 to 1 µg/mL. It also gave an MIC ([6]; Corning PS, MHB +T80) of 1 µg/mL (≈ 0.69 µM), an MIC ([6]; Corning PS, MHB -T80) of 1 µg/mL (≈ 0.69 µM) and an MIC ([6]; Corning TC, MHB +T80) of 1 µg/mL (≈ 0.69 µM). The MIC ([6]; Corning TC, MHB -T80) was 0.5 to 1 µg/mL, the MIC ([7]; Corning NBS, MHB +T80) was 1 to 2 µg/mL and the MIC ([7]; Corning NBS, MHB -T80) was 0.5 µg/mL (≈ 0.345 µM). For the same molecule, the MIC ([7]; Corning PS, MHB +T80) was 1 µg/mL (≈ 0.69 µM), the MIC ([7]; Corning PS, MHB -T80) was 1 µg/mL (≈ 0.69 µM) and the MIC ([7]; Corning TC, MHB +T80) was 0.5 to 1 µg/mL. It also gave an MIC ([7]; Corning TC, MHB -T80) of 1 µg/mL (≈ 0.69 µM), an MIC ([8]; Corning NBS, MHB +T80) of 0.125 to 0.25 µg/mL and an MIC ([8]; Corning NBS, MHB -T80) of 0.125 to 0.25 µg/mL. For the same molecule, the MIC ([8]; Corning PS, MHB +T80) was 0.125 µg/mL (≈ 0.0863 µM), the MIC ([8]; Corning PS, MHB -T80) was 0.125 µg/mL (≈ 0.0863 µM) and the MIC ([8]; Corning TC, MHB +T80) was 0.125 to 0.25 µg/mL. For the same molecule, the MIC ([8]; Corning TC, MHB -T80) was 0.125 µg/mL (≈ 0.0863 µM), the “MIC (literature)” value [9] was 2 ([62]) µg/ml and the protein binding [1] was 55%.
In the case of daptomycin, the protein binding [1] is given as 92%.
